Measured values published in patent US10093699B2, “Peptides with antimicrobial, anticancer and/or wound-healing promoting activities, pharmaceutical compositions containing the same, and use of the peptides with antimicrobial, anticancer and/or wound-healing promoting activities” (priority 2015, dated 2018).
Where a SMILES comes first, the peptide text is derived from it. [ ]: non-standard residue; d: D form. 2Nal = N[C@@H](Cc1ccc2ccccc2c1)C(=O)O

Legend:
[1] = test system: HFW cells; test: Cell live image (phase-contrast and immunofluorescence), HFW; format: cell-based, human; settings: 12 μM, 5 minutes
Procedure: PC9 and HFW cells (˜10^5 cells) were pre-seeded in 6-cm polystyrene dishes for 24 hours. Cell nuclear is labeled by 4′,6-diamidino-2-phenylindole (DAPI) with a final concentration of 10 μg/ml. After 10 minutes of incubation, the cells were washed by PBS. FITC-K4R2Nal2S1-NH2 was added to the dishes with the final concentration of 12 μM. After incubation for 5, 10, 20 minutes or 1 hour at 37° C., the cells were washed with PBS. The images of FITC-K4R2Nal2S1-NH2 in PC9 cells and HFW cells were observed using the Inverted Fluorescent Microscope Zeiss/Observer.Z1.
To investigate the mode of actions of K4R2Nal2-S1 peptide on human cancer cell line (PC9) and human fibroblast (HFW), cells were treated with FITC-labeled K4R2-Nal2-S1. Nucleus was labeled with DAPI, and the blue signal was observed by UV exciting light. The fluorescence distribution of FITC-labeled K4R2-Nal2-S1 peptide on cell membrane was visualized by the inverted fluorescent microscope.

[2] = test system: caspase 3 in PC9; test: Western blot for activated caspase 3, PC9; format: cell-based, human; settings: 12 μM
Procedure: PC9 cells were seeded in 10-cm polystyrene dishes for 48 hours. About seventy percent full of cells were treated with 12 μM K4R2Nal2S1 for 10 minutes, 1 hour or 24 hours. RPMI medium without peptide treated for 24 hours which was used as negative control.
Cells were collected by 200 μl RIPA and protease inhibitor blended buffer. After sonication and centrifugation for 10 minutes, 13000 rpm at 4° C., supernatants (lysis of cell) were collected. Protein concentrations of cell extracts were determined by Bradford reagent. Equal amount of boiled lysates (total 50 μg) were separated on 10% acrylamide gel. The gel was transferred to PVDF membrane in electro-blot system, 300 V, […], and 80 minutes.
The membrane was incubated in blocking buffer (5% skim milk, TBST buffer) for 1 hour at room temperature and washed in TBST buffer twice. Blocked membrane was incubated with Caspase-3 antibody (EPITOMICS, clone ID: E83-77) overnight at 4° C., washed for five times, and then incubated in secondary antibody (HRP, GeneTex catalogue number: GTX21311-01) for 1 hour at room temperature. The signals were visualized by enhanced chemiluminescence (ECL) and recorded by a detected system (ImageQuant LAS 4000 mini).

[3] = test system: caspase 3 in HFW cells; test: Western blot for activated caspase 3, HFW; format: cell-based, human
[4] = test system: PC9 human lung cancer cells; format: in vivo, male nude mice
Procedure: 12 male nude mice (BALB/cAnN.Cg-Foxn1nu/CrlNarl) were purchased from National Laboratory Animal Center, Taiwan.
100 μl human lung cancer cell PC9 (3×10^6 cells) in Matrigel (Corning) was injected subcutaneously into the dorsal side of 5-week-old male nude mice. Each mouse was inoculated two sites on its back (Taguchi F, Koh Y, Koizumi F, Tamura T, Saijo N, et al. (2004) Anticancer effects of ZD6474, a VEGF receptor tyrosine kinase inhibitor, in gefitinib (“Iressa”)-sensitive and resistant xenograft models. Cancer Sci 95: 984-989.). 1 week 5 days after implantation (cancer size>95 mm^3), 12 mice were allocated randomly into two group. One group was received K4R2Nal2S1 (5 mg/Kg, dissolving in 100 μl PBS buffer) by tail vein injection three times a week, the other group was injected PBS as control.
Body weight and cancer size were measured three times a week. The cancer volume was calculated by formula of width^2×length×0.52. The cancer volume below 100% of the pretreatment volume was defined as “cancer reduction” (Taguchi F, Koh Y, Koizumi F, Tamura T, Saijo N, et al. (2004) Anticancer effects of ZD6474, a VEGF receptor tyrosine kinase inhibitor, in gefitinib (“Iressa”)-sensitive and resistant xenograft models. Cancer Sci 95: 984-989.). “Cancer reduction” was confirmed when the mice were dissected.
The mice were sacrificed after treatment of 40 days, the cancers were removed, photographed, and weighed. All animal experiments were performed in accordance with the animal guidelines of the National Tsing Hua University Institutional Animal Care and approved by Animal Care Committee.
Solid cancers were fixed in 4% formaldehyde buffer. Paraffin-embedded tissues were cut to 2 μm-thickness sections, and deparaffinized in ultraclear buffer (J.T. Baker) and graded ethanol. The morphology of cancers was obtained by Hematoxylin and eosin (H&E) stained sections. In addition, the sections were immunostained with anti-cleaved-PARP (1:100) antibody (Cell Signaling, clone number: D65E10).
Tissue images were captured using light microscope (Eclipse E400, Nikon) with digital microscopy camera (AxioCam ICc 5, ZEISS), at 40×, 200× and 400× fields.
To evaluate the anticancer effect of K4R2Nal2-S1 peptide in vivo, PC9 cells were implanted subcutaneously to nude mice (see FIG. 7A) and followed by K4R2-Nal2-S1 injection via the intravenous route, at a dose of 5 mg/kg, three times weekly (FIGS. 7B and 7C).
To examine the involvement of necrosis and apoptosis in K4R2Nal2-S1 peptide mediated anticancer effect, lung tumors generated in the xenograft mouse model were excised and analyzed by Hematoxylin and eosin (H&E) staining and immunohistochemistry for cleaved PARP, a marker for cell apoptosis.

[5] = test system: HaCaT cells; test: Cell migration assay (in vitro wound healing assay); format: cell-based; settings: different concentrations of peptide; 12 and 24 h
Procedure: HaCaT cells (40,000) suspended in DMEM medium supplemented with 10% fetal bovine serum were seeded on each side of an ibidi culture insert (ibidi, Germany). Inserts were placed into 24-well plate. After incubated at 37° C. and 5% CO2 overnight, inserts were removed and 1 ml of serum-free DMEM medium supplemented with different concentrations of peptide was added. Medium without peptide and with 100 ng/ml EGF (epidermal growth factor) were negative and positive controls. At 0, 12 and 24 h, the images of injury area were observed using the Inverted Fluorescent Microscope Zeiss/Observer.Z1 (10×). Wound area was estimated by Adobe Photoshop. The repairing rate was calculated: repairing rate=(areat0−areat12,24)/areat0, wherein t represents time.

[6] = 5 mg/kg i.v., three times weekly, harvested 40 days after injection

## CC(=O)N[C@@H](CCCCN)C(=O)N[C@@H](CCCCN)C(=O)N[C@@H](CCCCN)C(=O)N[C@@H](CCCCN)C(=O)N[C@@H](CCCNC(=N)N)C(=O)N[C@@H](CCCNC(=N)N)C(=O)N[C@@H](Cc1ccc2ccccc2c1)C(=O)N[C@@H](Cc1ccc2ccccc2c1)C(=O)N[C@@H](CCCCN)C(=O)N[C@@H](CCCCN)C(=O)N[C@@H](Cc1c[nH]c2ccccc12)C(=O)N[C@@H](CCCNC(=N)N)C(=O)N[C@@H](CCCCN)C(=O)N[C@@H](Cc1c[nH]c2ccccc12)C(=O)N[C@@H](CC(C)C)C(=O)N[C@@H](C)C(=O)N[C@@H](CCCCN)C(=O)N[C@@H](CCCCN)C(N)=O [K4R2-Nal2-S1, Ac-KKKKRR-Nal-Nal-KKWRKWLAKK-NH2] (Ac-KKKKRR[2Nal][2Nal]KKWRKWLAKK-NH2)
[1]
  cellular swelling (phase-contrast microscopy): not in HFW cells
[2]
  caspase 3 activation (immunoblotting): activated caspase 3
[3]
  caspase 3 activation (immunoblotting): not in HFW cells
[4]; 5 mg/kg i.v., three times weekly
  tumor growth: significant inhibition
[4]; [6]
  volume of tumors harvested: decreased
  weight of tumors harvested: decreased
[4]; 46th day after implantation, 6 mice×2 side implantation, 12 in the PBS group
  number of exposed tumors: 7
[4]; excised xenograft tumors
  necrosis in tumors (H&E staining): large scale of necrosis regions
[4]; excised xenograft tumors, next to the necrosis regions
  cleaved PARP expression (immunohistochemistry): increased expression of cleaved PARP
[5]
  wound healing (repairing rate) compared to negative control: better effects of wound healing
